“Also recorded” adds a separate entry of the source.
What was measured:
Format in all cases: cell-based, human
SCC9 cells [1] = experiment: Matrigel invasion assay
Protocol: (§1) TGFβ Treatment and TGFBI Overexpression. For drug treatment experiments, SCC9 cells were grown in vehicle (4 μM HCl with 1 μg/mL BSA), TGFβ, or TGFβ-inhibitor. For TGFβ-treated cells, 10 ng/mL recombinant TGFβ1 (R&D Systems, Minneapolis, Minn.) or TGFβ3 (R&D systems) was applied. Cells in the TGFβ-inhibitor condition were either grown in 3:1 F12:DMEM (ThermoFisher Scientific) with 1 μM A-83-01 (Tocris Bioscience, Bristol, UK) or small airway basal medium (Lonza, Basel, Switzerland) with four inhibitors of the TGFβ pathway: 1 μM DMH-1, 1 μM A-83-01, 1 μM CHIR99021 (Tocris Bioscience), and 10 μM Y-27632 (Selleck Chemicals, Houston, Tex.). For scRNA-seq, cells in each condition were harvested 4 hours after treatment. For bulk RNA-seq, cells were harvested 2, 4, or 6 days after treatment and titrated for analysis. For matrigel invasion assay and cell proliferation assays, cells were maintained in the given conditions for the duration of the experiment.
Matrigel Invasion Assay. Matrigel invasion assay was performed as previously described (Puram et al., 2012). […] Cells on the lower surface of the membrane were fixed with methanol, stained with crystal violet, and counted in a blinded manner. […]
Matrigel Invasion Assay. […] Invaded cells in each well were counted in a blinded manner across four distinct high powered fields and averaged. Error was calculated as SEM for a representative experiment.

SCC9 cells [2] = experiment: scRNA-seq p-EMT gene expression score of treated SCC9 cells; details: scRNA-seq 4 hours after treatment, relative to vehicle, TGFβ 10 ng/mL, inhibitors: 1 μM A-83-01, or DMH-1, A-83-01, CHIR99021 and Y-27632
Protocol: RNA-seq of Cell Lines. For scRNA-seq, cells were harvested, stained for viability, and sorted into 96-well plates, as described above. cDNA synthesis, library construction, and sequencing were also performed as described. For bulk RNA, RNA was isolated from 1,000 pooled cells using RNEasy Micro Kit (Qiagen).
as §1, with “For bulk RNA-seq, cells were harvested 2, 4, or 6 days after treatment and titrated for analysis. For matrigel invasion assay and cell proliferation assays, cells were maintained in the given conditions for the duration of the experiment.” left out
Defining Cell and Sample Scores. […] However, such initial scores may be confounded by cell complexity, as cells with higher complexity have more genes detected (i.e. less zeros) and consequently would be expected to have higher cell scores for any gene-set. […] First, all analyzed genes are binned into 25 bins of equal size based on their aggregate expression levels (Ea). […]

SCC9 cells [3] = experiment: CellTiter-Glo cell proliferation assay; details: relative to vehicle
Protocol: as §1, with “For bulk RNA-seq, cells were harvested 2, 4, or 6 days after treatment and titrated for analysis. For matrigel invasion assay and cell proliferation assays, cells were maintained in the given conditions for the duration of the experiment.” left out
Cell Proliferation Assay. […] Cells were lysed on days 2, 4, and 6 by adding CTG reagent (Promega), and point luminescence was measured via the BioTek Synergy HTX Platereader (BioTek, Winooski, Vt.). […] CTG luminescence values for individual wells were normalized by subtracting background luminescence (mean luminescence values for wells containing PBS, with CTG reagent added), adjusting for 2 μM adenosine triphosphate (ATP) luminescence measured on the same 96-well plate, and normalizing by numbers of plated cells in each condition (as measured by T0 luminescence).
Cell Proliferation Assay. […] Error was calculated as SEM for a representative experiment.

TGFβ was tested, and the “TGFβ response (invasiveness) after genetic inactivation of TGFBI” value (SCC9 cells [1]; SCC9 TGFBI CRISPR knockout cells versus mock infected) was “abrogated”, the relative invasiveness (SCC9 cells [1]; SCC9 cells, 24 hours, relative to vehicle) was “increased” and the “p-EMT program / p-EMT gene expression score” value (SCC9 cells [2]) was “coherent induction; also recorded: induce a p-EMT-like program”. The relative proliferation (SCC9 cells [3]) was “reduced”.

B1: TGF4β3: recombinant TGFβ3 (R&D systems), CAF-related ligand (protein, UniProt P10600 301-412, looked up)
Transforming growth factor …: ALDTNYCFRNLEENCCVRPLYIDFRQDLGWKWVHEPKGYYANFCSGPCPYLRSADTTHSTVLGLYNTLNPEASASPCCVPQDLEPLTILYYVGRTPKVEQLSNMVVKSCKCS
For B1, the “p-EMT program / p-EMT gene expression score” value (SCC9 cells [2]) was “increased”.

From patent publication US20200071773A1, “TUMOR SIGNATURE FOR METASTASIS, COMPOSITIONS OF MATTER METHODS OF USE THEREOF” (Massachusetts Eye and Ear Infirmary, priority 2017, published 2020)
